Measured values as given in patent US9266876B2 (Actelion Pharmaceuticals Ltd., priority 2012, dated 2016).

Biological target: human CXCR3A (Homo sapiens (Human), UniProt P49682)
Experiment: FLIPR assay
Assay type: cell-based
Settings: CHO-K1 cells expressing the human CXCR3A coupled to Galpha(16); CXCL10 agonist 20 nM; Fluo-4-AM fluorescence; mean values if determined several times
Method: The bioactivity of compounds is tested in a fluorometric imaging plate reader (FLIPR: Molecular Devices) using engineered CHO-K1 cells expressing the human CXCR3A coupled to a G protein (Galpha(16)). Cells are plated the day prior to bioassay in F12 medium supplemented with 10% FBS and G418 and hygromycin antibiotics to maintain recombinant selection. At the day of bioassay, cells are washed and dye loaded for one hour with Fluo-4-AM (Invitrogen) in Hanks Balanced Salt Solution (Invitrogen), buffered with 20 mM Hepes at pH 7.4 and sodium bicarbonate (0.015%), containing 5 mM probenecid. […] Cells are washed free of excess dye and 60 microliter of wash buffer is added. Stock solutions of test compounds are made up at a concentration of 10 mM in DMSO, and serially diluted in dilution buffer to concentrations required for inhibition dose response curves. After a 10 minute incubation period at 37° C., 10 microliters of each compound dilution are transferred from a compound plate to the plate containing the recombinant cells in the FLIPR instrument according to the manufacturer's instructions. Following basal readings, 10 microliter CXCL10 agonist at a concentration of 20 nM (from Peprotech) is added, again using the FLIPR instrument. Changes in fluorescence are monitored before and after addition of the test compounds. Emission peak values above base level after CXCL10 addition are exported after base line subtraction. The program XLfit is used to fit the data to a single site dose response curve and to calculate IC50 values.

human CXCR3A, sequence (P49682 whole entry): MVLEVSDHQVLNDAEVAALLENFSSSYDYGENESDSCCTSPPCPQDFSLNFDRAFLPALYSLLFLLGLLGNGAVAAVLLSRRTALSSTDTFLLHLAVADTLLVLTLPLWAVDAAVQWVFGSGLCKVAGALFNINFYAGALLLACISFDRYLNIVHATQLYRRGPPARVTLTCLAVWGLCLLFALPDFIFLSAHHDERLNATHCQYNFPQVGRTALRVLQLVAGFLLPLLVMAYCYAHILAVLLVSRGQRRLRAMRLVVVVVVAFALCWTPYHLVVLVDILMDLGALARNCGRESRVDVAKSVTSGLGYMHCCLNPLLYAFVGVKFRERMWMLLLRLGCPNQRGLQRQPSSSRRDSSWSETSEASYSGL

Compound | IC50 [nM]
Cc1cc2cccnc2n1CC(=O)N1CCN(c2scnc2-c2nc3ccccc3[nH]2)CC1 [Example 66, 1-{4-[4-(1H-Benzoimidazol-2-yl)-thiazol-5-yl]-piperazin-1-yl}-2-(2-methyl-pyrrolo[2,3-b]pyridin-1-yl)-ethanone] | 31
Cc1cn(CC(=O)N2CCN(c3scnc3-c3nc4ccccc4[nH]3)CC2)c2ncccc12 [Example 67, 1-{4-[4-(1H-Benzoimidazol-2-yl)-thiazol-5-yl]-piperazin-1-yl}-2-(3-methyl-pyrrolo[2,3-b]pyridin-1-yl)-ethanone] | 9
COc1ccc2ccn(CC(=O)N3CCN(c4scnc4-c4nc5ccccc5[nH]4)CC3)c2n1 [Example 69, 1-{4-[4-(1H-Benzoimidazol-2-yl)-thiazol-5-yl]-piperazin-1-yl}-2-(6-methoxy-pyrrolo[2,3-b]pyridin-1-yl)-ethanone] | 69
Cc1ccc2ccn(CC(=O)N3CCN(c4scnc4-c4nc5ccccc5[nH]4)CC3)c2n1 [Example 70, 1-{4-[4-(1H-Benzoimidazol-2-yl)-thiazol-5-yl]-piperazin-1-yl}-2-(6-methyl-pyrrolo[2,3-b]pyridin-1-yl)-ethanone] | 13
Cn1c(=O)n(CC(=O)N2CCN(c3scnc3-c3nc4ccc(CO)cc4[nH]3)CC2)c2ccccc21 [Example 76, 1-(2-{4-[4-(6-Hydroxymethyl-1H-benzoimidazol-2-yl)-thiazol-5-yl]-piperazin-1-yl}-2-oxo-ethyl)-3-methyl-1,3-dihydro-benzoimidazol-2-one] | 10
Cc1ccccc1-c1nc(-c2nc3ccccc3[nH]2)c(N2CCN(C(=O)Cn3cnc4cccnc43)[C@H](C)C2)s1 [Example 81, 1-{(R)-4-[4-(1H-Benzoimidazol-2-yl)-2-o-tolyl-thiazol-5-yl]-2-methyl-piperazin-1-yl}-2-imidazo[4,5-b]pyridin-3-yl-ethanone] | 23
COc1ccccc1-c1nc(-c2nc3ccccc3[nH]2)c(N2CCN(C(=O)Cn3cnc4cccnc43)[C@H](C)C2)s1 [Example 82, 1-{(R)-4-[4-(1H-Benzoimidazol-2-yl)-2-(2-methoxy-phenyl)-thiazol-5-yl]-2-methyl-piperazin-1-yl}-2-imidazo[4,5-b]pyridin-3-yl-ethanone] | 96
C[C@@H]1CN(c2scnc2-c2nc3cc(C(C)(C)C)ccc3[nH]2)CCN1C(=O)Cn1cnc2cccnc21 [Example 86, 1-{(R)-4-[4-(5-tert-Butyl-1H-benzoimidazol-2-yl)-thiazol-5-yl]-2-methyl-piperazin-1-yl}-2-imidazo[4,5-b]pyridin-3-yl-ethanone] | 1
C[C@@H]1CN(c2scnc2-c2nc3cc(Cl)c(F)cc3[nH]2)CCN1C(=O)Cn1cnc2cccnc21 [Example 89, 1-{(R)-4-[4-(5-Chloro-6-fluoro-1H-benzoimidazol-2-yl)-thiazol-5-yl]-2-methyl-piperazin-1-yl}-2-imidazo[4,5-b]pyridin-3-yl-ethanone] | 1
C[C@@H]1CN(c2scnc2-c2nc3c(F)c(F)ccc3[nH]2)CCN1C(=O)Cn1cnc2cccnc21 [Example 90, 1-{(R)-4-[4-(4,5-Difluoro-1H-benzoimidazol-2-yl)-thiazol-5-yl]-2-methyl-piperazin-1-yl}-2-imidazo[4,5-b]pyridin-3-yl-ethanone] | 2
C[C@@H]1CN(c2scnc2-c2nc3cc(Cl)c(C(F)(F)F)cc3[nH]2)CCN1C(=O)Cn1cnc2cccnc21 [Example 93, 1-{(R)-4-[4-(5-Chloro-6-trifluoromethyl-1H-benzoimidazol-2-yl)-thiazol-5-yl]-2-methyl-piperazin-1-yl}-2-imidazo[4,5-b]pyridin-3-yl-ethanone] | 1
Cc1c(Cl)ccc2[nH]c(-c3ncsc3N3CCN(C(=O)Cn4cnc5cccnc54)[C@H](C)C3)nc12 [Example 94, 1-{(R)-4-[4-(5-Chloro-4-methyl-1H-benzoimidazol-2-yl)-thiazol-5-yl]-2-methyl-piperazin-1-yl}-2-imidazo[4,5-b]pyridin-3-yl-ethanone] | 0.5
C[C@@H]1CN(c2scnc2-c2nc3c(C(F)(F)F)cccc3[nH]2)CCN1C(=O)Cn1cnc2cccnc21 [Example 95, 2-Imidazo[4,5-b]pyridin-3-yl-1-{(R)-2-methyl-4-[4-(4-trifluoromethyl-1H-benzoimidazol-2-yl)-thiazol-5-yl]-piperazin-1-yl}-ethanone] | 4
C[C@@H]1CN(c2scnc2-c2nc3c(F)cccc3[nH]2)CCN1C(=O)Cn1cnc2cccnc21 [Example 97, 1-{(R)-4-[4-(4-Fluoro-1H-benzoimidazol-2-yl)-thiazol-5-yl]-2-methyl-piperazin-1-yl}-2-imidazo[4,5-b]pyridin-3-yl-ethanone] | 2
C[C@@H]1CN(c2scnc2-c2nc3ccccc3n2C)CCN1C(=O)Cn1cnc2cccnc21 [Example 98, 2-Imidazo[4,5-b]pyridin-3-yl-1-{(R)-2-methyl-4-[4-(1-methyl-1H-benzoimidazol-2-yl)-thiazol-5-yl]-piperazin-1-yl}-ethanone] | 9
Cn1c(=O)n(CC(=O)N2CCN(c3scnc3-c3nc4cc(OCCO)ccc4[nH]3)CC2)c2ccccc21 [Example 101, 1-[2-(4-{4-[5-(2-Hydroxy-ethoxy)-1H-benzoimidazol-2-yl]thiazol-5-yl}-piperazin-1-yl)-2-oxo-ethyl]-3-methyl-1,3-dihydro-benzoimidazol-2-one] | 14
COCCOc1ccc2[nH]c(-c3ncsc3N3CCN(C(=O)Cn4c(=O)n(C)c5ccccc54)CC3)nc2c1 [Example 102, 1-[2-(4-{4-[5-(2-Methoxy-ethoxy)-1H-benzoimidazol-2-yl]-thiazol-5-yl}-piperazin-1-yl)-2-oxo-ethyl]-3-methyl-1,3-dihydro-benzoimidazol-2-one] | 14
O=C(CN1CCCc2ccccc21)N1CCN(c2scnc2-c2nc3ccccc3[nH]2)CC1 [Example 105, 1-{4-[4-(1H-Benzoimidazol-2-yl)-thiazol-5-yl]-piperazin-1-yl}-2-(3,4-dihydro-2H-quinolin-1-yl)-ethanone] | 89
O=C(CN1CCOc2ccccc21)N1CCN(c2scnc2-c2nc3ccccc3[nH]2)CC1 [Example 106, 1-{4-[4-(1H-Benzoimidazol-2-yl)-thiazol-5-yl]-piperazin-1-yl}-2-(2,3-dihydro-benzo[1,4]oxazin-4-yl)-ethanone] | 99
O=C1CCN(CC(=O)N2CCN(c3scnc3-c3nc4ccccc4[nH]3)CC2)c2ccccc21 [Example 107, 1-(2-{4-[4-(1H-Benzoimidazol-2-yl)-thiazol-5-yl]-piperazin-1-yl}-2-oxo-ethyl)-2,3-dihydro-1H-quinolin-4-one] | 78
O=C(Cn1ccc2cccc(F)c21)N1CCN(c2scnc2-c2nc3ccccc3[nH]2)CC1 [Example 108, 1-{4-[4-(1H-Benzoimidazol-2-yl)-thiazol-5-yl]-piperazin-1-yl}-2-(7-fluoro-indol-1-yl)-ethanone] | 4
O=C(Cc1cccnc1)N1CCN(c2scnc2-c2nc3ccccc3[nH]2)CC1 [Example 110, 1-{4-[4-(1H-Benzoimidazol-2-yl)-thiazol-5-yl]-piperazin-1-yl}-2-pyridin-3-yl-ethanone] | 487
COc1ccc(CC(=O)N2CCN(c3scnc3-c3nc4ccccc4[nH]3)CC2)c(F)c1 [Example 111, 1-{4-[4-(1H-Benzoimidazol-2-yl)-thiazol-5-yl]-piperazin-1-yl}-2-(2-fluoro-4-methoxy-phenyl)-ethanone] | 280
Cn1c(=O)n(CC(=O)N2CCN(c3scnc3-c3nc4c(O)cccc4[nH]3)CC2)c2ccccc21 [Example 112, 1-(2-{4-[4-(4-Hydroxy-1H-benzoimidazol-2-yl)-thiazol-5-yl]-piperazin-1-yl}-2-oxo-ethyl)-3-methyl-1,3-dihydro-benzoimidazol-2-one] | 10
C[C@@H]1CN(c2scnc2-c2nc3ccccc3[nH]2)CCN1C(=O)Cc1ccc2ccccc2c1 [Example 117, 1-{(R)-4-[4-(1H-Benzoimidazol-2-yl)-thiazol-5-yl]-2-methyl-piperazin-1-yl}-2-naphthalen-2-yl-ethanone] | 75
C[C@@H]1CN(c2scnc2-c2nc3ccccc3[nH]2)CCN1C(=O)Cc1ccc2cccnc2c1 [Example 120, 1-{(R)-4-[4-(1H-Benzoimidazol-2-yl)-thiazol-5-yl]-2-methyl-piperazin-1-yl}-2-quinolin-7-yl-ethanone] | 16
C[C@@H]1CN(c2scnc2-c2nc3ccccc3[nH]2)CCN1C(=O)Cc1ccc2nccnc2c1 [Example 121, 1-{(R)-4-[4-(1H-Benzoimidazol-2-yl)-thiazol-5-yl]-2-methyl-piperazin-1-yl}-2-quinoxalin-6-yl-ethanone] | 42
C[C@@H]1CN(c2scnc2-c2nc3ccccc3[nH]2)CCN1C(=O)Cc1ccc2c(c1)NC(=O)CO2 [Example 122, 6-(2-{(R)-4-[4-(1H-Benzoimidazol-2-yl)-thiazol-5-yl]-2-methyl-piperazin-1-yl}-2-oxo-ethyl)-4H-benzo[1,4]oxazin-3-one] | 152
C[C@@H]1CN(c2scnc2-c2nc3ccccc3[nH]2)CCN1C(=O)Cc1cccc2[nH]ccc12 [Example 123, 1-{(R)-4-[4-(1H-Benzoimidazol-2-yl)-thiazol-5-yl]-2-methyl-piperazin-1-yl}-2-(1H-indol-4-yl)-ethanone] | 69
